For assay [1], the system named is A. niger. Briefly: agar diffusion-disk technique, halo formation (fungal strains). Format: cell-based, Aspergillus niger. Particulars: for re-growth around the formulation: A. niger, 96 hours after inhibition; for activity against A. niger: formulation at 0.5%, after 7 days. Here is the method:
This technique is explained in R. K. Dart, Microbiology for the Analytic Chemist, The Royal Society of Chemists, 1996, which is incorporated herein by reference. […] Anti-bacterial activity was detected by showing a distinguished halo around the disk previously wetted with the formulation. Halo formation was measured with a caliper and biological activity was considered according to size. Details of specific applications and formulations are set forth below. […] SDS indicates Sodium Dodecyl Sulfate. […] Details of specific applications and formulations are set forth below.

The test system of assay [2] is A. niger. In words: culture of the fungi A. niger exposed to disk moistened with formulation (glycerol/SDS base). Format: cell-based, Aspergillus niger. Particulars: under more controlled conditions; 0.5 and 1% formulations. The method, then:
Formulations were further tested against a culture of the fungi A. niger. The fungi was exposed to 1% PCO/1% POH, 1% PCO, and 1% POH formulations. All formulations were prepared in a glycerol/SDS base in water.

A further assay has as its system bacteria, yeast or fungi. In words: general statements on activity against bacteria, yeast or fungi. The assay is classed as cell-based. The settings on record: enhancer alone.

As to `C=C(C)C1CC=C(C=O)CC1` (stereo not drawn) [PCO, perillyl aldehyde], in the assay with A. niger [1], the “re-growth around the formulation” value was “no growth” and the “activity against A. niger” value is reported as “very active”. Moreover, the “inhibition of growth of A. niger” value in the assay with A. niger [2] is listed as “did inhibit growth”.
On the same counts, the results for `C=C(C)[C@@H]1CC=C(CO)CC1` [POH, perillyl alcohol, reference compound] are “re-growth”, “considerable growth” and “did not perform as aggressively”.
Turning to `CCCCCCCCCCCCOS(=O)(=O)[O-].[Na+]` [SDS, Sodium Dodecyl Sulfate], the “activity against bacterial cells” value in the assay on bacteria, yeast or fungi is recorded as “do not provide activity”.
Turning to `CC(O)CO` (stereo not drawn) [propylene glycol], in the assay on bacteria, yeast or fungi, the “activity against bacterial cells” value is on record as “do not provide activity” and the “effect against bacteria, yeast or fungi” value was “no effect”.

Source of the values: US20060229368A1, “MEDICAL APPLICATION OF OXIDIZED MONOTERPENES” (priority 2001, published 2006).
